This is an account of results in patent publication US4889926A, “Method for the synthesis of (2"R)-4'-O-tetra-hydropyranyladriamycim using 14-chloro-daunomycin as an intermediate” (priority 1987, dated 1989).

Data set [1] has as its system murine leukemia P-388 cells (resistant to adriamycin). Description: Growth inhibition by MTT assay, P-388 resistant to adriamycin. The format is cell-based. The following applies: Mus musculus, read-out: IC50 value (50% growth inhibitory concentration), P-388 resistant to adriamycin. As for the experimental part: (§1) Antitumor activities of 14-chlorodaunomycin against various experimental tumors, including murine leukemia P-388 cells, murine leukemia P-388 cells (resistant to adriamycin), murine melanoma B16 cells, human lung cancer PC14 cells and murine leukemia L-1210 cells, were tested and evaluated in vitro by the following procedure:
(§2) The tumor cells were cultivated in RPMI 1640 medium supplemented with 10% fetal calf serum, 10μM 2-hydroxyethyldisulfide and kanamycin at 50 μg/ml (the growth medium), under air containing 5% CO2 at 37° C.
(§3) The tumor cells were incubated at initial densities of 1.5×10^4 cells/ml with murine melanoma B16; 2×10^4 cells/ml with murine leukemia P388, P388/ADR and L-1210; and 2.5×10^4 cells/ml with human lung cancer PC14 cells in the growth medium further containing graded concentrations of each test compound, for 72 hours. The IC50 value, namely the 50% growth inhibitory concentration of the tested compound was evaluated by MTT assay method (see Mosmann, T; "J. Immunol. Methods", 65, 55-63 (1983).
Background: Tetrazolium assays rely on reduction of a dye to a coloured formazan, in cell work by metabolically active cells.

The subject of data set [2] is murine melanoma B16 cells. As to the kind of experiment: Growth inhibition by MTT assay, B16. The format is cell-based. The following applies: Mus musculus, read-out: IC50 value (50% growth inhibitory concentration), B16. As for the experimental part: as §1, §2, §3
Data set [3] deals with murine leukemia L-1210 cells. As to the kind of experiment: Growth inhibition by MTT assay, L-1210. The following applies: Mus musculus, read-out: IC50 value (50% growth inhibitory concentration), L-1210. It is filed as cell-based. On the procedure: as §1, §2, §3
The subject of data set [4] is murine leukemia P-388 cells. Description: Growth inhibition by MTT assay, P-388. The format is cell-based. The following applies: Mus musculus, read-out: IC50 value (50% growth inhibitory concentration), P-388. As for the experimental part: as §1, §2, §3
The subject of data set [5] is human lung cancer PC14 cells. As to the kind of experiment: Growth inhibition by MTT assay, PC14. It is filed as cell-based. The following applies: read-out: IC50 value (50% growth inhibitory concentration), PC14. As for the experimental part: as §1, §2, §3
Data set [6] can be described thus: Storage stability in solid state. It is filed as physicochemical. The settings on record: -10° C. An excerpt: In the above-mentioned known processes for the preparation of (2"R)-4'-O-THPADM of formula (A) in which daunomycin (DM) of formula (II) is used as the starting compound, and which are effected via the 14-bromodaunomycin of formula (V) as the intermediate product (namely the processes of the aforesaid Japanese patent application first publication "Kokai" Nos. 104,299/80 and 156,300/81), there are formed great amounts of the undesired by-products in the tetrahydropyranylation step so that the intended final compound can be obtained only in a low yield with these prior art processes. The intermediate compound, 14-bromodaunomycin is so unstable that even when it has been stored in its solid state at -10° C. for about 1 week, 14-bromodaunomycin can remain only in such an amount which is as little as about two-thirds of its initial amount before its storage, due to that the amino sugar moiety bonded to the 7-position can be cleaved to bring about the degradation of 14-bromodaunomycin.

Data set [7] is described as follows: Stability in solution in an organic solvent. The format is physicochemical.
The test system of data set [8] is various kinds of experimental tumors. Description: Antitumor activity against various experimental tumors (in words). The format is cell-based. As for the experimental part: Antitumor activities of 14-chlorodaunomycin against various experimental tumors, including murine leukemia P-388 cells, murine leukemia P-388 cells (resistant to adriamycin), murine melanoma B16 cells, human lung cancer PC14 cells and murine leukemia L-1210 cells, were tested and evaluated in vitro by the following procedure: […]

The test system of the next data set is tumor. The settings on record: Japanese patent publication No. 47194/81 and U.S. Pat. No. 4,303,785; cited from earlier work.
The mark [9] stands for this setting: P388/ADR, 72 hours, MTT assay, 2×10^4 cells/ml.
Where [10] appears, read: B16, 72 hours, MTT assay, 1.5×10^4 cells/ml.
[11] abbreviates: L1210, L-1210, 72 hours, MTT assay, 2×10^4 cells/ml.
[12] abbreviates: P388, P-388, 72 hours, MTT assay, 2×10^4 cells/ml.
Where [13] appears, read: PC-14, PC14, 72 hours, MTT assay, 2.5×10^4 cells/ml.

Converted amounts (≈) assume the structure as drawn. Like-named read-outs stand apart in the source and are kept apart here.

As to `COc1cccc2c1C(=O)c1c(O)c3c(c(O)c1C2=O)C[C@@](O)(C(C)=O)C[C@@H]3O[C@H]1C[C@H](N)[C@H](O)[C@H](C)O1` [Daunomycin, daunomycin], the IC50 in data set [1] (setting [9]) came out at 0.668 µg/mL (≈ 1.27 µM); in data set [2] (setting [10]), 0.0449 µg/mL (≈ 0.0851 µM); in [3] (setting [11]) it was 0.0655 µg/mL (≈ 0.124 µM); in data set [4] (setting [12]), 0.0163 µg/mL (≈ 0.0309 µM); in data set [5] (setting [13]), 0.237 µg/mL (≈ 0.449 µM).
Regarding `COc1cccc2c1C(=O)c1c(O)c3c(c(O)c1C2=O)C[C@@](O)(C(=O)CBr)C[C@@H]3O[C@H]1C[C@H](N)[C@H](O)[C@H](C)O1` [14-bromodaunomycin], the “amount remaining of its initial amount after storage” value in data set [6] (14-bromodaunomycin (comparator intermediate), solid state, about 1 week) is “about two-thirds”.
Take `COc1cccc2c1C(=O)c1c(O)c3c(c(O)c1C2=O)C[C@@](O)(C(=O)CCl)C[C@@H]3O[C@H]1C[C@H](N)[C@H](O)[C@H](C)O1` [14-chlorodaunomycin]: in data set [7] (organic solvent containing some water and an acidic compound, same conditions), the “decomposition rate in solution compared with 14-bromodaunomycin” value is reported as “considerably smaller than that of 14-bromodaunomycin”. For the same molecule, in [7] (solution in an organic solvent), the “stability in solution in an organic solvent” value is given as “somewhat stable”. Moreover, the IC50 was 0.552 µg/mL (≈ 0.982 µM) in data set [1] (P388, 72 h); 0.093 µg/mL (≈ 0.165 µM) in data set [2] (B16, 72 h); 0.268 µg/mL (≈ 0.477 µM) in data set [3] (L1210, 72 h); 0.0963 µg/mL (≈ 0.171 µM) in data set [4] (P388, 72 h); 0.96 µg/mL (≈ 1.71 µM) in data set [5] (PC-14, 72 h). In addition, the antitumor activity entry in [8] is listed as “remarkable antitumor activity”. Besides, in [6] (solid form, 1 week or so), the decomposition on storage result is “no substantial decomposition”.
In the case of `COc1cccc2c1C(=O)c1c(O)c3c(c(O)c1C2=O)C[C@@](O)(C(=O)CO)C[C@@H]3O[C@H]1C[C@H](N)[C@H](O[C@@H]2CCCCO2)[C@H](C)O1` [4'-O-tetrahydropyranyladriamycin], the antitumor activity entry in the data set with tumor is reported as “has antitumor activity”.
Regarding `COc1cccc2c1C(=O)c1c(O)c3c(c(O)c1C2=O)C[C@@](O)(C(=O)CO)C[C@@H]3O[C@H]1C[C@H](N)[C@H](O)[C@H](C)O1` [Adriamycin, adriamycin], the IC50 in data set [1] (setting [9]) was determined as 2.06 µg/mL (≈ 3.79 µM); in data set [2] (setting [10]) it was 0.101 µg/mL (≈ 0.186 µM); in [3] (setting [11]), 0.154 µg/mL (≈ 0.283 µM); in data set [4] (setting [12]), 0.033 µg/mL (≈ 0.0607 µM); in data set [5] (setting [13]), 0.765 µg/mL (≈ 1.41 µM).
